From patent US9120749B2, “Quinoline derivatives and MELK inhibitors containing the same” (ONCOTHERAPY SCIENCE, INC., priority 2010, dated 2015)
Structures can show the parent of a compound that is named as a salt. Where two headings read alike, the source gives them in different places.

Legend:
[1] = target: MELK (Homo sapiens, UniProt Q14680); experiment: Kinase assay: MELK activity, phosphorylation of FITC-labeled histone H3 peptide measured by IMAP fluorescence polarization; type: biochemical
In short: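 Polarization of fluorescence served as the signal for MELK turnover of FITC-conjugated histone H3 peptide. Binding solution quenched each reaction, and plates stood 0.5 hour at room temperature before reading.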

[2] = system: T47D cells; experiment: Cell-based assay: anti-proliferative activity, Cell Counting Kit-8, 72 hours (T47D); conditions: Homo sapiens, T47D, 72 h
In short: (§1)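 Target-specific cytotoxicity: seeded cells treated with MELK inhibitor candidates for 72 h, proliferation quantified via CCK-8, IC50 fitted.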

[3] = system: A549 cells; experiment: Cell-based assay: anti-proliferative activity, Cell Counting Kit-8, 72 hours (A549); conditions: Homo sapiens, A549, 72 h, 72 hours
In short: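 A549 cells seeded in 96-well plates and exposed to candidate inhibitors for 72 hours. Growth measured with Cell Counting Kit-8; IC50 values calculated from the dose response.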

[4] = system: HT-1197 cells; experiment: Cell-based assay: anti-proliferative activity, Cell Counting Kit-8, 72 hours (HT-1197, negative control without MELK expression); conditions: Homo sapiens, HT1197, 72 h, HT1197 cells (negative control, no MELK expression), 72 hours
In short: as §1

[5] = system: 22Rv1 cells; experiment: Cell-based assay: anti-proliferative activity, Cell Counting Kit-8, 72 hours (22Rv1); conditions: Homo sapiens, 22Rv1, 72 h
[6] = system: DU4475 cells; experiment: Cell-based assay: anti-proliferative activity, Cell Counting Kit-8, 72 hours (DU4475); conditions: Homo sapiens, DU-4475, 72 h
[7] = read-out: IC50 (μM) (kinase assay)

MELK, sequence (Q14680 whole entry, looked up): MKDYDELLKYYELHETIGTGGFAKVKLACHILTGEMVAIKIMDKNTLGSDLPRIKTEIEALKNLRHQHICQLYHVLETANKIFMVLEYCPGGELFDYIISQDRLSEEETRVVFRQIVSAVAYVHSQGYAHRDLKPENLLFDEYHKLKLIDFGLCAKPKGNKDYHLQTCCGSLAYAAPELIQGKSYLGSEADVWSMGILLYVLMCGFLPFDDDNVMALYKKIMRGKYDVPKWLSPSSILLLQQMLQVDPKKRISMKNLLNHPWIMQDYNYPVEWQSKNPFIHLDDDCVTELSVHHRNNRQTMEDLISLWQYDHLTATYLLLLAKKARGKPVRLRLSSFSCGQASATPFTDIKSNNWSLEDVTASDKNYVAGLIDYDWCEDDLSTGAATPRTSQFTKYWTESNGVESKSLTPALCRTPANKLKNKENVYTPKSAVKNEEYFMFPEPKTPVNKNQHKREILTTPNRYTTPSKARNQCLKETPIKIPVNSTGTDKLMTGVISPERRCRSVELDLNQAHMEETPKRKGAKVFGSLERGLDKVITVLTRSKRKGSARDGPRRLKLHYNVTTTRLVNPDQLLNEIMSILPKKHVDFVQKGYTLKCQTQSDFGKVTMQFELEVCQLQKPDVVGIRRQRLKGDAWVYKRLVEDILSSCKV

Row | SMILES | IC50 [1, 7] | IC50 [2] | IC50 [3] | IC50 [4] | IC50 [5] | IC50 [6] | IC50 [1]
1 | CC(=O)c1cnc2ccc(-c3cc(Cl)c(O)c(Cl)c3)cc2c1N[C@H]1C[C@H](CN(C)C)C1 [Example 784, 1-(6-(3,5-dichloro-4-hydroxyphenyl)-4-((1r,3r)-3-((dimethylamino)methyl)cyclobutylamino)quinolin-3-yl)ethanone] | 0.0031 µM | 0.6 µM | 0.74 µM | 3.2 µM | 0.95 µM | 0.2 µM | –
2 | CNC1CCN(c2ccc(Nc3c(C(C)=O)cnc4ccc(-c5cc(F)c(O)c(Cl)c5)cc34)cn2)C1 (stereo not drawn) [Example 785, 1-(6-(3-chloro-5-fluoro-4-hydroxyphenyl)-4-((6-(3-(methylamino)pyrrolidin-1-yl)pyridin-3-yl)amino)quinolin-3-yl)ethanone trihydrochloride] | 0.0056 µM | 0.035 µM | 0.094 µM | 1.3 µM | 0.076 µM | 0.074 µM | –
3 | CC(=O)c1cnc2ccc(-c3cc(F)c(O)c(Cl)c3)cc2c1N[C@H]1CC[C@H](CN2CCC(N)C2)CC1 (stereo partly drawn) [Example 786, 1-(4-(1R,4R)-4-((3-aminopyrrolidin-1-yl)methyl)cyclohexylamino)-6-(3-chloro-5-fluoro-4-hydroxyphenyl)quinolin-3-yl)ethanone hydrochloride] | 0.0031 µM | 0.07 µM | 0.96 µM | 10 µM | 0.17 µM | 0.23 µM | –
4 | COc1cc(-c2ccc3ncc(C(C)=O)c(N[C@H]4CC[C@H](CN5CCN(C)CC5)CC4)c3c2)cc(Cl)c1O [Example 787, 1-(6-(3-chloro-4-hydroxy-5-methoxyphenyl)-4-(1R,4R)-4-((4-methylpiperazin-1-yl)methyl)cyclohexylamino)quinolin-3-yl)ethanone hydrochloride] | 0.0058 µM | 0.48 µM | 0.44 µM | 5.2 µM | 0.72 µM | 2.7 µM | –
5 | CNC1CCN(c2ccc(Nc3c(C(C)=O)cnc4ccc(-c5cc(Cl)c(O)c(Cl)c5)cc34)cn2)C1 (stereo not drawn) [Example 788, 1-(6-(3,5-dichloro-4-hydroxyphenyl)-4-((6-(3-(methylamino)pyrrolidin-1-yl)pyridin-3-yl)amino)quinolin-3-yl)ethanone trihydrochloride] | 0.0017 µM | 0.071 µM | 0.16 µM | 8.6 µM | 0.1 µM | 0.07 µM | –
6 | CNC1CCN(c2ccc(Nc3c(C(=O)C4CC4)cnc4ccc(-c5cc(F)c(O)c(Cl)c5)cc34)cn2)C1 (stereo not drawn) [Example 789, (6-(3-chloro-5-fluoro-4-hydroxyphenyl)-4-((6-(3-(methylamino)pyrrolidin-1-yl)pyridin-3-yl)amino)quinolin-3-yl)(cyclopropyl)methanone trihydrochloride] | 0.0028 µM | 0.039 µM | 0.076 µM | 0.8 µM | 0.077 µM | 0.053 µM | –
7 | CCN(CC)C[C@H]1CC[C@H](Nc2c(C(C)=O)cnc3ccc(-c4cc(Cl)c(O)c(Cl)c4)cc23)CC1 [Example 790] | 0.0018 µM | 0.1 µM | 0.14 µM | 4.2 µM | 0.14 µM | 0.098 µM | –
8 | CCN(CC)C[C@H]1CC[C@H](Nc2c(C(C)=O)cnc3ccc(-c4cc(Cl)c(O)c(OC)c4)cc23)CC1 [Example 791, 1-(6-(3-chloro-4-hydroxy-5-methoxyphenyl)-4-(1R,4R)-4-((diethylamino)methyl)cyclohexylamino)quinolin-3-yl)ethanone hydrochloride] | 0.0031 µM | 0.58 µM | 0.27 µM | 9.3 µM | 0.49 µM | 0.43 µM | –
9 | COc1cc(-c2ccc3ncc(C(C)=O)c(N[C@H]4CC[C@H](CN5CCC[C@H]5CO)CC4)c3c2)cc(Cl)c1O [Example 793, 1-(6-(3-chloro-4-hydroxy-5-methoxyphenyl)-4-((1S,4r)-4-(((S)-2-(hydroxymethyl)pyrrolidin-1-yl)methyl)cyclohexylamino)quinolin-3-yl)ethanone] | 0.0018 µM | 0.15 µM | 0.17 µM | 7.1 µM | 0.34 µM | 0.33 µM | –
10 | CCN(CC)C[C@H]1CC[C@H](Nc2c(C(C)=O)cnc3ccc(-c4cc(F)c(O)c(Cl)c4)cc23)CC1 [Example 794] | 0.0056 µM | 0.031 µM | 0.077 µM | 0.75 µM | 0.094 µM | 0.074 µM | –
11 | O=C(c1cnc2ccc(-c3cc(F)c(O)c(F)c3)cc2c1Nc1ccc(CN2CCCC2)nc1)C1CC1 [Example 795, cyclopropyl(6-(3,5-difluoro-4-hydroxyphenyl)-4-(6-(pyrrolidin-1-ylmethyl)pyridin-3-ylamino)quinolin-3-yl)methanone] | 0.035 µM | 0.51 µM | 0.34 µM | 3.5 µM | 0.83 µM | 0.31 µM | –
12 | CN(C)CCc1cccc(Nc2c(C(=O)C3CC3)cnc3ccc(-c4cc(F)c(O)c(F)c4)cc23)c1 [Example 796, cyclopropyl(6-(3,5-difluoro-4-hydroxyphenyl)-4-(3-(2-(dimethylamino)ethyl)phenylamino)quinolin-3-yl)methanone] | 0.026 µM | 0.43 µM | 0.14 µM | 0.67 µM | 0.52 µM | 0.14 µM | –
13 | O=C(c1cnc2ccc(-c3cc(F)c(O)c(Cl)c3)cc2c1Nc1cccc(CCN2CCCC2)c1)C1CC1 [Example 799, {6-(3-Chloro-5-fluoro-4-hydroxyphenyl)-4-[3-(2-(pyrrolidin-1-yl)ethyl)phenylamino]quinolin-3-yl}(cyclopropyl)methanone] | 0.0047 µM | 0.52 µM | 0.081 µM | 10 µM | 0.25 µM | 0.079 µM | –
14 | CNC1CCN(c2ccc(Nc3c(C(=O)C4CC4)cnc4ccc(-c5cc(Cl)c(O)c(Cl)c5)cc34)cn2)C1 (stereo not drawn) [Example 804, cyclopropyl(6-(3,5-dichloro-4-hydroxyphenyl)-4-((6-(3-(methylamino)pyrrolidin-1-yl)pyridin-3-yl)amino)quinolin-3-yl)methanone trihydrochloride] | 0.002 µM | 0.088 µM | 0.17 µM | 1.4 µM | 0.1 µM | 0.042 µM | –
15 | CC(=O)c1cnc2ccc(-c3cc(F)c(O)c(Cl)c3)cc2c1Nc1cnn(C2CCN(C)CC2)c1 [Example 805, 1-(6-(3-chloro-5-fluoro-4-hydroxyphenyl)-4-(1-(1-methylpiperidin-4-yl)-1H-pyrazol-4-ylamino)quinolin-3-yl)ethanone hydrochloride] | 0.0028 µM | 0.17 µM | 0.34 µM | 2.4 µM | 0.32 µM | 0.11 µM | –
16 | CNC1CCCN(c2ccc(Nc3c(C(C)=O)cnc4ccc(-c5cc(Cl)c(O)c(Cl)c5)cc34)cn2)C1 (stereo not drawn) [Example 806, 1-(6-(3,5-dichloro-4-hydroxyphenyl)-4-((6-(3-(methylamino)piperidin-1-yl)pyridin-3-yl)amino)quinolin-3-yl)ethanone trihydrochloride] | – | 0.027 µM | 0.054 µM | 0.33 µM | 0.039 µM | 0.032 µM | 0.0012 µM
17 | CNC1CCCN(c2ccc(Nc3c(C(=O)C4CC4)cnc4ccc(-c5cc(Cl)c(O)c(Cl)c5)cc34)cn2)C1 (stereo not drawn) [Example 807, cyclopropyl(6-(3,5-dichloro-4-hydroxyphenyl)-4-((6-(3-(methylamino)piperidin-1-yl)pyridin-3-ylamino)quinolin-3-yl)methanone trihydrochloride] | 0.0015 µM | 0.058 µM | 0.056 µM | 1.1 µM | 0.055 µM | 0.032 µM | –
18 | CC(=O)c1cnc2ccc(-c3cc(F)c(O)c(Cl)c3)cc2c1N[C@H]1CC[C@H](CN2CCC[C@@H]2CO)CC1 [Example 808, 1-(6-(3-chloro-5-fluoro-4-hydroxyphenyl)-4-(1R,4R)-4-(((R)-2-(hydroxymethyl)pyrrolidin-1-yl)methyl)cyclohexylamino)quinolin-3-yl)ethanone hydrochloride] | 0.0065 µM | 0.12 µM | 0.22 µM | 8.2 µM | 0.22 µM | 0.11 µM | –
19 | COc1cc(-c2ccc3ncc(C(C)=O)c(N[C@H]4CC[C@H](CN5CCCC(N)C5)CC4)c3c2)cc(Cl)c1O (stereo partly drawn) [Example 809, 1-(4-(1R,4R)-4-((3-aminopiperidin-1-yl)methyl)cyclohexylamino)-6-(3-chloro-4-hydroxy-5-methoxyphenyl)quinolin-3-yl)ethanone hydrochloride] | 0.016 µM | 4.6 µM | 3.1 µM | 10 µM | 2.6 µM | 10 µM | –
20 | CC(=O)c1cnc2ccc(-c3cc(Cl)c(O)c(Cl)c3)cc2c1N[C@H]1CC[C@H](CN2CCCC(N)C2)CC1 (stereo partly drawn) [Example 810] | 0.0018 µM | 0.034 µM | 0.12 µM | 2.3 µM | 0.056 µM | 0.044 µM | –
21 | COc1cc(-c2ccc3ncc(C(C)=O)c(N[C@H]4CC[C@H](CN5CCC[C@@H]5CO)CC4)c3c2)cc(Cl)c1O [Example 811] | 0.0027 µM | 0.49 µM | 0.28 µM | 5.4 µM | 0.45 µM | 0.38 µM | –
